Reference: patent publication US9346810B2, “Pyrrolopyrimidine compounds and uses thereof” (HUTCHISON MEDIPHARMA LIMITED, priority 2010, dated 2016)
Where two headings read alike, the source gives them in different places.

How the values were obtained:
[1] = biological target: Recombinant human JAK2 catalytic domain (Homo sapiens (Human), UniProt O60674); experiment: JAK2 kinase assay (Z'-LYTE, Tyr 6 Peptide); type: biochemical
Experimental: (§1) JAK1/2/3 kinase assay are performed in vitro using Kit-Tyr 6 Peptide (Invitrogen, Cat. No. PV4122). TYK2 kinase assay are performed in vitro using Z′-LYTE™ Kinase Assay Kit-Tyr 3 Peptide (Invitrogen, Cat. No. PV3192). […] All compounds are initially tested at 8 different concentrations (1 μM down to 0.0003 μM) using a 1:3 serial dilution scheme.

[2] = biological target: Recombinant human JAK3 catalytic domain (Homo sapiens (Human), UniProt P52333); experiment: JAK3 kinase assay (Z'-LYTE, Tyr 6 Peptide); type: biochemical
Sequence of Recombinant human JAK3 catalytic domain (P52333 822-1111): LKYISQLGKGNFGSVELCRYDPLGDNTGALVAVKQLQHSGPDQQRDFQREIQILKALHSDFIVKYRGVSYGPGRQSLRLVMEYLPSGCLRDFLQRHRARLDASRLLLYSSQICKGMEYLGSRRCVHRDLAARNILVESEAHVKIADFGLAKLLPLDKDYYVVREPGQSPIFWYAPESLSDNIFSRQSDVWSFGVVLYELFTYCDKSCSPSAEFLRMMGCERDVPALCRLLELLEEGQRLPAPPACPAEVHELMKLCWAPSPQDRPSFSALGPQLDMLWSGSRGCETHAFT
Experimental: as §1

[3] = read-out: IC50 in JAK2 kinase assay
[4] = read-out: IC50 in JAK3 kinase assay

Sequence of Recombinant human JAK2 catalytic domain (O60674 849-1124): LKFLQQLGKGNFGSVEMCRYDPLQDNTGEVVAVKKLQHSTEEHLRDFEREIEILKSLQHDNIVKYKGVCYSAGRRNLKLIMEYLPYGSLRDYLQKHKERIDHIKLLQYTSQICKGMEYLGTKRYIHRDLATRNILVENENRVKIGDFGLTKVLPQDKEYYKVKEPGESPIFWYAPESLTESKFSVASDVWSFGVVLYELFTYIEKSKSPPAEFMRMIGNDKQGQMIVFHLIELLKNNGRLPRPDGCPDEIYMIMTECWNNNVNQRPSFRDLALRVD

Row | Compound | IC50 [1, 3] | IC50 [2, 4] | IC50 ([2]; read-out: JAK3 (enzyme, IC50)) | IC50 ([1]; read-out: JAK2 (enzyme, IC50))
1 | CCCC(=O)N(C)[C@@H]1CCN(c2ncnc3[nH]ccc23)C1 [Compound 3] | 0.1 to 1 µM | – | – | –
2 | CN(C(=O)C1(C#N)CC1)[C@@H]1CCN(c2ncnc3[nH]ccc23)C1 [Compound 6] | 0.1 to 1 µM | – | – | –
3 | CN(C(=O)CC(F)(F)F)[C@@H]1CCN(c2ncnc3[nH]ccc23)C1 [Compound 25] | – | 0.1 to 1 µM | – | –
4 | C=CCN(C1CCCC1)[C@@H]1CCN(c2ncnc3[nH]ccc23)C1 [Compound 40] | 0.001 to 0.1 µM | 0.1 to 1 µM | – | –
5 | N#Cc1ccc2c(c1)CCN2C1CCN(c2ncnc3[nH]ccc23)C1 (stereo not shown) [Compound 46] | 0.001 to 0.1 µM | – | – | –
6 | N#CCN(C1CCC1)[C@@H]1CCN(c2ncnc3[nH]ccc23)C1 [Compound 52] | 0.1 to 1 µM | – | – | –
7 | CN(C1CCCC1)[C@@H]1CCN(c2ncnc3[nH]ccc23)C1 [Compound 53] | 0.1 to 1 µM | – | – | –
8 | N#CCN(C1CC1)[C@@H]1CCN(c2ncnc3[nH]ccc23)C1 [Compound 55] | 0.1 to 1 µM | – | – | –
9 | C#CCN(C1CCOC1)[C@@H]1CCN(c2ncnc3[nH]ccc23)C1 (stereo partly shown) [Compound 56] | 0.1 to 1 µM | – | – | –
10 | CN(c1ccc(C(F)(F)F)nn1)[C@@H]1CCN(c2ncnc3[nH]ccc23)C1 [Compound 62] | 0.001 to 0.1 µM | 0.1 to 1 µM | – | –
11 | CN(CCC#N)[C@@H]1CCN(c2ncnc3[nH]ccc23)C1 [Compound 64] | 0.001 to 0.1 µM | 0.1 to 1 µM | – | –
12 | CN(c1ccc(F)cn1)[C@@H]1CCN(c2ncnc3[nH]ccc23)C1 [Compound 66] | 0.001 to 0.1 µM | 0.001 to 0.1 µM | – | –
13 | Cc1cc(N(C)[C@@H]2CCN(c3ncnc4[nH]ccc34)C2)nc(Cl)c1C#N [Compound 72] | 0.1 to 1 µM | – | – | –
14 | Cc1cc(Cl)nc(N(C)[C@@H]2CCN(c3ncnc4[nH]ccc34)C2)c1C#N [Compound 73] | 0.001 to 0.1 µM | 0.1 to 1 µM | – | –
15 | CN(c1nc(Cl)nc2ccccc12)[C@@H]1CCN(c2ncnc3[nH]ccc23)C1 [Compound 79] | 0.1 to 1 µM | 0.1 to 1 µM | – | –
16 | CN(c1ncnc2ccccc12)[C@@H]1CCN(c2ncnc3[nH]ccc23)C1 [Compound 80] | 0.001 to 0.1 µM | 0.1 to 1 µM | – | –
17 | N#Cc1ccc(N[C@@H]2CCN(c3ncnc4[nH]ccc34)C2)nc1 [Compound 81] | 0.001 to 0.1 µM | 0.1 to 1 µM | – | –
18 | CN(c1cnc(C#N)cn1)[C@@H]1CCN(c2ncnc3[nH]ccc23)C1 [Compound 84] | – | 0.1 to 1 µM | – | –
19 | CN(c1ccc(Cl)nn1)[C@@H]1CCN(c2ncnc3[nH]ccc23)C1 [Compound 85] | 0.1 to 1 µM | – | – | –

Row | Compound | IC50 [1, 3] | IC50 [2, 4] | IC50 ([2]; read-out: JAK3 (enzyme, IC50)) | IC50 ([1]; read-out: JAK2 (enzyme, IC50))
20 | CN(c1nc(Cl)c(C#N)cc1F)[C@@H]1CCN(c2ncnc3[nH]ccc23)C1 [Compound 87] | 0.001 to 0.1 µM | 0.1 to 1 µM | – | –
21 | CN(c1ncc(Br)cc1C#N)[C@@H]1CCN(c2ncnc3[nH]ccc23)C1 [Compound 89] | 0.1 to 1 µM | – | – | –
22 | CN(c1ccc(C#N)cn1)[C@@H]1CCN(c2ccnc3[nH]ccc23)C1 [Compound 92] | 0.001 to 0.1 µM | 0.1 to 1 µM | – | –
23 | CN(c1ncc(Br)cn1)[C@@H]1CCN(c2ncnc3[nH]ccc23)C1 [Compound 94] | 0.001 to 0.1 µM | 0.1 to 1 µM | – | –
24 | C#CCN(c1c(F)cc(C#N)cc1F)[C@@H]1CCN(c2ncnc3[nH]ccc23)C1 [Compound 129] | 0.001 to 0.1 µM | 0.001 to 0.1 µM | – | –
25 | CCOc1cnc(N(C)[C@@H]2CCN(c3ncnc4[nH]ccc34)C2)cn1 [Compound 136] | 0.1 to 1 µM | – | – | –
26 | CN(c1ccc(-c2cccs2)cn1)[C@@H]1CCN(c2ncnc3[nH]ccc23)C1 [Compound 147] | 0.1 to 1 µM | – | – | –
27 | CN(c1ccccn1)[C@@H]1CCN(c2ncnc3[nH]ccc23)C1 [Compound 156] | 0.001 to 0.1 µM | 0.1 to 1 µM | – | –
28 | CN(c1ccc(-c2nn[nH]n2)cn1)[C@@H]1CCN(c2ncnc3[nH]ccc23)C1 [Compound 160, (R)—N-(1-(7H-pyrrolo[2,3-d]pyrimidin-4-yl)pyrrolidin-3-yl)-N-methyl-5-(2H-tetrazol-5-yl)pyridin-2-amine] | 0.1 to 1 µM | – | – | –
29 | CN(c1ccc2nn[nH]c2n1)[C@@H]1CCN(c2ncnc3[nH]ccc23)C1 [Compound 167, (R)—N-(1-(7H-pyrrolo[2,3-d]pyrimidin-4-yl)pyrrolidin-3-yl)-N-methyl-3H-[1,2,3]triazolo[4,5-b]pyridin-5-amine] | 0.1 to 1 µM | – | – | –
30 | CN(c1ccc(C(=O)O)cn1)[C@@H]1CCN(c2ncnc3[nH]ccc23)C1 [Compound 170, (R)-6-((1-(7H-pyrrolo[2,3-d]pyrimidin-4-yl)pyrrolidin-3-yl)(methyl)amino)nicotinic acid] | 0.1 to 1 µM | – | – | –
31 | CN(c1ccc(C(=O)N[C@@H](CO)c2ccccc2)cn1)[C@@H]1CCN(c2ncnc3[nH]ccc23)C1 [Compound 176] | 0.001 to 0.1 µM | – | – | –
32 | CN(C(=O)c1ccc(N(C)[C@@H]2CCN(c3ncnc4[nH]ccc34)C2)nc1)c1ccc(F)cc1 [Compound 178] | 0.1 to 1 µM | – | – | –
33 | CN(c1ccc(C(=O)N[C@@H](CO)c2ccccc2)cc1F)[C@@H]1CCN(c2ncnc3[nH]ccc23)C1 [Compound 179] | 0.001 to 0.1 µM | – | – | –
34 | CN(c1ccc(C(=O)Nc2cccc(Cl)c2)cc1F)[C@@H]1CCN(c2ncnc3[nH]ccc23)C1 [Compound 185] | 0.001 to 0.1 µM | – | – | –
35 | CN(c1ccc(C(=O)Nc2ccccc2F)cn1)[C@@H]1CCN(c2ncnc3[nH]ccc23)C1 [Compound 192] | 0.001 to 0.1 µM | – | – | –
36 | CN(c1ccc(C(=O)NC(CO)c2ccc(Cl)cc2)cc1F)[C@@H]1CCN(c2ncnc3[nH]ccc23)C1 (stereo partly shown) [Compound 201] | 0.001 to 0.1 µM | – | – | –
37 | CN(c1ccc(C(=O)NC(CO)c2ccccc2Cl)cc1F)[C@@H]1CCN(c2ncnc3[nH]ccc23)C1 (stereo partly shown) [Compound 207] | 0.1 to 1 µM | – | – | –
38 | CN(c1ccc(NS(=O)(=O)c2ccc(F)cc2)cn1)[C@@H]1CCN(c2ncnc3[nH]ccc23)C1 [Compound 212] | 0.001 to 0.1 µM | – | – | –

The next lines start with the values.

Row | IC50 [1, 3] | IC50 [2, 4] | IC50 ([2]; read-out: JAK3 (enzyme, IC50)) | IC50 ([1]; read-out: JAK2 (enzyme, IC50)) | Compound
39 | 0.1 to 1 µM | – | – | – | CN([C@@H]1CCN(c2ncnc3[nH]ccc23)C1)S(=O)(=O)c1cccc(C#N)c1 [Compound 10]
40 | 0.1 to 1 µM | – | – | – | CN([C@@H]1CCN(c2ncnc3[nH]ccc23)C1)S(=O)(=O)c1cccc([N+](=O)[O-])c1 [Compound 12]
41 | 0.1 to 1 µM | 0.1 to 1 µM | – | – | CN(C(=O)Nc1ccc(C#N)cc1)[C@@H]1CCN(c2ncnc3[nH]ccc23)C1 [Compound 17]
42 | 0.001 to 0.1 µM | 0.1 to 1 µM | – | – | N#Cc1ccc(N(C2CC2)[C@@H]2CCN(c3ncnc4[nH]ccc34)C2)nc1 [Compound 41]
43 | 0.001 to 0.1 µM | – | 0.157 µM | 0.098 µM | CNS(=O)(=O)N(C)[C@@H]1CCN(c2ncnc3[nH]ccc23)C1 [Compound 47]
44 | 0.001 to 0.1 µM | 0.1 to 1 µM | – | – | CCS(=O)(=O)N(C)[C@@H]1CCN(c2ncnc3[nH]ccc23)C1 [Compound 48]
45 | 0.1 to 1 µM | – | – | – | CC(C)S(=O)(=O)N(C)[C@@H]1CCN(c2ncnc3[nH]ccc23)C1 [Compound 49]
46 | 0.1 to 1 µM | – | – | – | C#CCN(c1ccc(S(C)(=O)=O)cn1)[C@@H]1CCN(c2ncnc3[nH]ccc23)C1 [Compound 58]
47 | 0.001 to 0.1 µM | 0.1 to 1 µM | – | – | CN(c1ccc(C#N)nn1)[C@@H]1CCN(c2ncnc3[nH]ccc23)C1 [Compound 60]
48 | 0.1 to 1 µM | 0.1 to 1 µM | – | – | CN(c1ccc([N+](=O)[O-])cn1)[C@@H]1CCN(c2ncnc3[nH]ccc23)C1 [Compound 70]
49 | 0.001 to 0.1 µM | 0.1 to 1 µM | – | – | CN(c1ccc(C#N)cn1)[C@@H]1CCN(c2ncnc3[nH]ccc23)C1 [Compound 71]
50 | 0.1 to 1 µM | – | – | – | CN(c1ncc(C#N)cc1Cl)[C@@H]1CCN(c2ncnc3[nH]ccc23)C1 [Compound 83]
51 | 0.1 to 1 µM | – | – | – | CN(c1ccc(C#N)c(Cl)n1)[C@@H]1CCN(c2ncnc3[nH]ccc23)C1 [Compound 90]
52 | 0.001 to 0.1 µM | 0.1 to 1 µM | – | – | CN(c1cccc(C#N)n1)[C@@H]1CCN(c2ncnc3[nH]ccc23)C1 [Compound 91]
53 | 0.1 to 1 µM | 0.1 to 1 µM | – | – | CN(c1ncc(C#N)cc1[N+](=O)[O-])[C@@H]1CCN(c2ncnc3[nH]ccc23)C1 [Compound 96]
54 | 0.001 to 0.1 µM | 0.1 to 1 µM | – | – | CCCN(c1ccc(C#N)cn1)[C@@H]1CCN(c2ncnc3[nH]ccc23)C1 [Compound 98]
55 | 0.001 to 0.1 µM | 0.1 to 1 µM | – | – | CN(c1ncc(C#N)cc1Br)[C@@H]1CCN(c2ncnc3[nH]ccc23)C1 [Compound 99]
56 | 0.001 to 0.1 µM | 0.1 to 1 µM | – | – | CN(c1ccc(C#N)cn1)[C@H]1CCN(c2ncnc3[nH]ccc23)C1 [Compound 102]
57 | – | – | 0.359 µM | 0.0487 µM | CN(c1ccc(C#N)c(F)c1)[C@@H]1CCN(c2ncnc3[nH]ccc23)C1 [Compound 105]
58 | 0.1 to 1 µM | 0.1 to 1 µM | – | – | CN(c1ccc(C#N)cc1[N+](=O)[O-])[C@@H]1CCN(c2ncnc3[nH]ccc23)C1 [Compound 107]
59 | 0.1 to 1 µM | – | – | – | CN(c1c(F)cc(C#N)cc1F)[C@@H]1CCN(c2ncnc3[nH]ccc23)C1 [Compound 108]
60 | 0.001 to 0.1 µM | 0.1 to 1 µM | – | – | CN(c1ccc(C#N)c2ccccc12)[C@@H]1CCN(c2ncnc3[nH]ccc23)C1 [Compound 111]
61 | 0.001 to 0.1 µM | 0.1 to 1 µM | – | – | CN(c1ccc(C#N)c(Br)c1)[C@@H]1CCN(c2ncnc3[nH]ccc23)C1 [Compound 114]
62 | 0.1 to 1 µM | – | – | – | CN(c1ccc(C#N)cc1Br)[C@@H]1CCN(c2ncnc3[nH]ccc23)C1 [Compound 115]
63 | 0.1 to 1 µM | – | – | – | C#CCN(c1ccc(C#N)cc1F)[C@@H]1CCN(c2ncnc3[nH]ccc23)C1 [Compound 130]
64 | 0.001 to 0.1 µM | 0.1 to 1 µM | – | – | C#CCN(c1ccc(C#N)cc1)[C@@H]1CCN(c2ncnc3[nH]ccc23)C1 [Compound 131]
65 | 0.001 to 0.1 µM | – | – | – | Cc1cc(N(C)[C@@H]2CCN(c3ncnc4[nH]ccc34)C2)ncc1C#N [Compound 157]
66 | 0.1 to 1 µM | – | – | – | CN(c1ncc(C#N)cc1F)[C@@H]1CCN(c2ncnc3[nH]ccc23)C1 [Compound 158]
67 | 0.001 to 0.1 µM | 0.1 to 1 µM | – | – | CN(c1ncccc1C#N)[C@@H]1CCN(c2ncnc3[nH]ccc23)C1 [Compound 159]
68 | – | – | 0.0863 µM | – | CN(c1ccc(S(N)(=O)=O)cn1)[C@@H]1CCN(c2ncnc3[nH]ccc23)C1 [Compound 234]
